Assay results from ChEMBL document CHEMBL3046210, “6-Imino-2-thioxo-pyrimidinones as a new class of dipeptidyl peptidase IV inhibitors” (Med Chem Res, 2011).

Experiments:
[1] = system: HepG2; assay: Cytotoxicity against Homo sapiens (human) HepG2 cells up to 0.1 mM after 24 hr by MTS assay; type: cell-based; conditions: hepg2, 24 h
[2] = system: THP-1; assay: Cytotoxicity against Homo sapiens (human) THP1 cells up to 0.1 mM after 24 hr by MTS assay; type: cell-based; conditions: thp-1, 24 h

SMILES: CCCCC1(Cc2cc(OC)c(OC)c(OC)c2)C(=N)NC(=S)NC1=O (stereo unspecified)
- Activity [1]: Non-toxic
- Activity [2]: Non-toxic

SMILES: COc1cc(CC2(Cc3cc(OC)c(OC)c(OC)c3)C(=N)NC(=S)NC2=O)cc(OC)c1OC
- Activity [1]: Non-toxic
- Activity [2]: Non-toxic

SMILES: C=CCC1(Cc2cc(OC)c(OC)c(OC)c2)C(=N)NC(=S)NC1=O (stereo unspecified)
- Activity [1]: Non-toxic
- Activity [2]: Non-toxic

SMILES: COc1cc(CC2(C(C)C)C(=N)NC(=S)NC2=O)cc(OC)c1OC (stereo unspecified)
- Activity [1]: Non-toxic
- Activity [2]: Non-toxic

SMILES: CCC1(Cc2cc(OC)c(OC)c(OC)c2)C(=N)NC(=S)NC1=O (stereo unspecified)
- Activity [1]: Non-toxic
- Activity [2]: Non-toxic

SMILES: CCCC1(Cc2cc(OC)c(OC)c(OC)c2)C(=N)NC(=S)NC1=O (stereo unspecified)
- Activity [1]: Non-toxic
- Activity [2]: Non-toxic

SMILES: COc1cc(CC2(C)C(=N)NC(=S)NC2=O)cc(OC)c1OC (stereo unspecified)
- Activity [1]: Non-toxic
- Activity [2]: Non-toxic

SMILES: COc1cc(CC2C(=N)NC(=S)NC2=O)cc(OC)c1OC (stereo unspecified)
- Activity [1]: Non-toxic
- Activity [2]: Non-toxic
